Results published in US12509467B2 (Hoffmann-La Roche Inc., priority 2020, dated 2025).
Like-named read-outs stand apart in the source and are kept apart here.

Molecular target: T1, human cGAS (residues 161-522) (Homo sapiens, UniProt Q8N884)
T1 construct: Recombinantly expressed purified human cGAS (residues 161-522) was used at 25 nM; made in house
Assay: cGAS Activity Assay—Malachite Green
Assay type: biochemical
Method: Compounds were tested for cGAS inhibition in a coupled enzymatic assay based on Phosphate detection by Malachite Green. Final assay conditions were 20 mM TRIS pH 7.5 (Applichem), 5 mM MgCl2 (Sigma) and 0.01% BSA (Sigma) supplemented with 80 μM ATP (Sigma), 80 μM GTP (Sigma) and 100 nM Interferon Stimulating DNA (ISD) (Microsynth).
1 μL of DMSO dilution series was transferred to 32.3 μL reaction buffer, mixed by pipetting up/down, spun for 1 minute at 3000 rpm and was visually inspected for precipitation. 5 μL of 3-fold enzyme stock solution were transferred to an empty 384-well Black/Clear Flat Bottom Polystyrene NBS (Corning) rows 3-24. Rows 1-2 were filled with assay buffer. Plates were spun 10 seconds at 1000 rpm (164×g). 5 μL of compound intermediate dilution was added and mixed by pipetting up/down to rows 3-24. Rows 1-2 were filled with 3.1% DMSO assay buffer. Plates were spun 10 seconds at 1000 rpm (164×g). 5 μL 3-fold Nucleotide/DNA mix was added to all wells to start the reaction. Plates were spun 10 seconds at 1000 rpm (164×g) and incubated for 4 hour at room temperature (RT) in the dark. 5 μL 4 U/mL PPase (Sigma) were added to all wells. Plates spun 10 seconds at 1000 rpm (164×g). 10 μL BioMol green Solution (Enzo Life Sciences) was added to all wells. Plates spun 10 seconds at 1000 rpm (164×g) and incubated 30 minutes at RT in the dark. Absorbance data was collected 620 nm on an EnVision Multilable Reader (Perkin Elmer) and the following measurement settings were used: excitation filter photometric was 620 nm; excitation from the top; measurement height was 1 mm; number of flashes was 30; number of flashes integrated was 1.
All plates are checked for abnormalities and outliers in the Blank Control (no protein, row 1) and the Neutral Control (no compound, row 2) are excluded using the 3*SD rule.
Table 5 provides IC50 values (μM) for cGAS inhibition obtained for particular examples of the present invention as measured by the above-described assay.

[1] = cGAS inhibition, 25 nM cGAS, 80 μM ATP, 80 μM GTP, 100 nM ISD, 4 hour at RT, Malachite Green phosphate detection, read-out: IC50 cGAS

T1 sequence (Q8N884 161-522): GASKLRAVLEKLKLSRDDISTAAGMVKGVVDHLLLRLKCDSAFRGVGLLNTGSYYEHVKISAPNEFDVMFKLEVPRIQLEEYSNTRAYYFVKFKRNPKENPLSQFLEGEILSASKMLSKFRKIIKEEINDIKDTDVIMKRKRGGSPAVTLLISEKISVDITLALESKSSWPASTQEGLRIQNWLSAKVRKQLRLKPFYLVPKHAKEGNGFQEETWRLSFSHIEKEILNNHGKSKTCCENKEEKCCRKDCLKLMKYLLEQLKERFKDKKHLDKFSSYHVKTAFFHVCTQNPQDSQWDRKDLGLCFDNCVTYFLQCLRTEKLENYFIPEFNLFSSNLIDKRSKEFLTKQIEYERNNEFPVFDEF

IC50 [1]	IC50	Compound
3530 nM	–	CCCCc1cc(=O)n2nc(NCc3cnn(-c4cnccn4)c3)nc2[nH]1 [Example 45, 5-butyl-2-[(1-pyrazin-2-ylpyr-azol-4-yl)methylamino]-4H-[1,2,4]triazolo[1,5-a]pyrimidin-7-one]
3590 nM	–	O=c1cc(CC2CC2)[nH]c2nc(NCc3ccc(Cl)cc3Cl)nn12 [Example 63, 5-(cyclopropylmethyl)-2-[(2,4-dichlorophenyl)methylamino]-4H-[1,2,4]triazolo[1,5-a]-pyrimidin-7-one]
663 nM	–	Cn1ccc(-c2ccc(Cl)c(CNc3nc4[nH]c(C(F)(F)F)cc(=O)n4n3)c2)n1 [Example 19, 2-[[2-chloro-5-(1-methylpyrazol-3-yl)phenyl]methylamino]-5-(trifluoromethyl)-4H-[1,2,4]-triazolo[1,5-a]pyrimidin-7-one]
6670 nM	–	CCCc1cc(=O)n2nc(NCc3cc(N4CCN(C)CC4)ncc3Cl)nc2[nH]1 [Example 95, 2-[[5-chloro-2-(4-methyl-piperazin-1-yl)-4-pyridyl]-methylamino]-5-propyl-4H-[1,2,4]triazolo[1,5-a]pyrim-idin-7-one]
3640 nM	–	CCCc1cc(=O)n2nc(NCc3ccc(OC)cc3C)nc2[nH]1 [Example 70, 2-[(4-methoxy-2-methylphen-yl)methylamino]-5-propyl-4H-[1,2,4]triazolo[1,5-a]pyrimidin-7-one]
672 nM	–	CCCc1cc(=O)n2nc(NCc3ccc(-c4ccccc4)cc3)nc2[nH]1 [Example 67, 2-[(4-phenylphenyl)methyl-amino]-5-propyl-4H-[1,2,4]-triazolo[1,5-a]pyrimidin-7-one]
277 nM	–	CCCc1cc(=O)n2nc(NCc3cc(-c4ccncn4)ccc3Cl)nc2[nH]1 [Example 38, 2-[(2-chloro-5-pyrimidin-4-yl-phenyl)methylamino]-5-propyl-4H-[1,2,4]triazolo[1,5-a]-pyrimidin-7-one]
–	869 nM	CCCc1cc(=S)n2nc(NCc3cc(-c4ccn(C)n4)ccc3Cl)nc2[nH]1 [Example 40, 2-[[2-chloro-5-(1-methylpyrazol-3-yl)phenyl]methylamino]-5-propyl-4H-[1,2,4]triazolo[1,5-a]-pyrimidine-7-thione]
4440 nM	–	O=c1cc(CC(F)(F)F)[nH]c2nc(NCc3ccc(Cl)cc3Cl)nn12 [Example 68, 2-[(2,4-dichlorophenyl)meth-ylamino]-5-(2,2,2-trifluoro-ethyl)-4H-[1,2,4]triazolo[1,5-a]pyrimidin-7-one]
1720 nM	–	CCCc1cc(=O)n2nc(NCc3ccc(Cl)cc3Cl)nc2[nH]1 [Example 58, 2-[(2,4-Dichlorophenyl)methylamino]-5-propyl-4H-[1,2,4]triazolo[1,5-a]pyrimidin-7-one]
263 nM	–	Cn1ccc(-c2ccc(Cl)c(CNc3nc4[nH]c(CCCC(F)F)cc(=O)n4n3)c2)n1 [Example 50, 2-[[2-chloro-5-(1-methylpyrazol-3-yl)phenyl]methylamino]-5-(4,4-difluorobutyl)-4H-[1,2,4]-triazolo[1,5-a]pyrimidin-7-one]
–	4080 nM	CCCc1cc(=O)n2nc(NCc3ccc(OCc4ccccc4)cc3)nc2[nH]1 [Example 17, 2-[(4-benzyloxyphenyl)methyl-amino]-5-propyl-4H-[1,2,4]-triazolo[1,5-a]pyrimidin-7-one]
1920 nM	–	O=c1cc(CNc2ccccc2F)[nH]c2nc(NCc3ccccc3Cl)nn12 [Example 80, 2-[(2-Chlorophenyl)methylamino]-5-1(2-fluoroanilino)methyl1-4H-11,2,41triazolo[1,5-a]pyrimidin-7-one]
1910 nM	–	CCCc1cc(=O)n2nc(NCc3cc(-c4ccn(C)n4)ccc3OC)nc2[nH]1 [Example 28, 2-[[2-methoxy-5-(1-methyl-pyrazol-3-yl)phenyl]methyl-amino]-5-propyl-4H-[1,2,4]-triazolo[1,5-a]pyrimidin-7-one]
–	2900 nM	CCCc1cc(=O)n2nc(OCc3cc(-c4cnn(C)c4)ccc3Cl)nc2[nH]1 [Example 91, 2-[[2-Chloro-5-(1-methylpyrazol-4-yl)phenyl]methoxyl]-5-propyl-4H-[1,2,4]triazolo[1,5-a]pyrimidin-7-one]
79 nM	–	CCCCc1cc(=O)n2nc(NCc3cc(-c4ccncn4)ccc3Cl)nc2[nH]1 [Example 86, 5-Butyl-2-[(2-chloro-5-pyrimidin-4-yl-phenyl)methylamino]-4H-[1,2,4]triazolo [1,5-a]pyrimidin-7-one]
2910 nM	–	CCCc1cc(=O)n2nc(NCc3ccc(OC)cc3F)nc2[nH]1 [Example 6, 2-[(2-fluoro-4-methoxyphenyl)-methylamino]-5-propyl-4H-[1,2,4]triazolo[1,5-a]pyrimidin-7-one]

IC50 [1]	IC50	Compound
435 nM	–	CCCCc1cc(=O)n2nc(NCc3nc(N4CCOCC4)ncc3Cl)nc2[nH]1 [Example 98, 5-Butyl-2-[(5-chloro-2-morpholino-pyrimidin-4-yl)methylamino]-4H-[1,2,4]triazolo[1,5-a]pyrimidin-7-one]
–	1590 nM	CCCc1cc(=O)n2nc(NCc3ccc(C(C)C)cc3)nc2[nH]1 [Example 55, 2-[(4-propan-2-ylphenyl)meth-ylamino]-5-propyl-4H-[1,2,4]-triazolo[1,5-a]pyrimidin-7-one]
603 nM	–	COCCCc1cc(=O)n2nc(NCc3cc(-c4ccn(C)n4)ccc3Cl)nc2[nH]1 [Example 48, 2-[[2-chloro-5-(1-methylpyrazol-3-yl)phenyl]methylamino]-5-(3-methoxypropyl)-4H-[1,2,4]-triazolo[1,5-a]pyrimidin-7-one]
2010 nM	–	CCCCc1cc(=O)n2nc(NCc3ccn(-c4ccccc4)n3)nc2[nH]1 [Example 47, 5-butyl-2-[(1-phenylpyrazol-3-yl)methylamino]-4H-[1,2,4]-triazolo[1,5-a]pyrimidin-7-one]
–	1340 nM	CCCc1cc(=O)n2nc(NCc3ccc(OCC)cc3Cl)nc2[nH]1 [Example 11]
6720 nM	–	CCCc1cc(=O)n2nc(NC(C)c3ccc(Cl)cc3Cl)nc2[nH]1 (stereo not shown) [Example 76, 2-[1-(2,4-dichlorophenyl)ethyl-amino]-5-propyl-4H-[1,2,4]-triazolo[1,5-a]pyrimidin-7-one]
–	444 nM	CCCc1cc(=O)n2nc(NCc3cc(-c4cn(C)cn4)ccc3Cl)nc2[nH]1 [Example 30, 2-[[2-chloro-5-(1-methylimid-azol-4-yl)phenyl]methylamino]-5-propyl-4H-[1,2,4]triazolo[1,5-a]pyrimidin-7-one]
1240 nM	–	Cn1ccc(-c2ccc(F)c(CNc3nc4[nH]c(C(F)(F)F)cc(=O)n4n3)c2)n1 [Example 20, 2-[[2-fluoro-5-(1-methylpyrazol-3-yl)phenyl]methylamino]-5-(trifluoromethyl)-4H-[1,2,4]-triazolo[1,5-a]pyrimidin-7-one]
2820 nM	–	Cn1ccc(-c2ccc(CNc3nc4[nH]c(C(F)(F)F)cc(=O)n4n3)cc2)n1 [Example 18, 2-[[4-(1-methylpyrazol-3-yl)-phenyl]methylamino]-5-(trifluoromethyl)-4H-[1,2,4]-triazolo[1,5-a]pyrimidin-7-one]
–	2870 nM	CCCc1cc(=O)n2nc(NC(C)c3ccc(-c4ccccc4)cc3)nc2[nH]1 (stereo not shown) [Example 56, 2-[1-(4-phenylphenyl)ethyl-amino]-5-propyl-4H-[1,2,4]-triazolo[1,5-a]pyrimidin-7-one]
3780 nM	–	O=c1cc(C2CC2)[nH]c2nc(NCc3ccc(Cl)cc3Cl)nn12 [Example 59, 5-cyclopropyl-2-[(2,4-dichloro-phenyl)methylamino]-4H-[1,2,4]triazolo[1,5-a]pyrimidin-7-one]
2110 nM	–	Cc1cc(=O)n2nc(NCc3cc(-c4ccn(C)n4)ccc3Cl)nc2[nH]1 [Example 34, 2-[[2-chloro-5-(1-methylpyrazol-3-yl)phenyl]methylamino]-5-methyl-4H-[1,2,4]triazolo[1,5-a]-pyrimidin-7-one]
178 nM	–	Cn1ccc(-c2ccc(Cl)c(CNc3nc4[nH]c(Cc5ccccc5)cc(=O)n4n3)c2)n1 [Example 27]
2560 nM	–	CCCc1cc(=O)n2nc(NCc3cccc(-c4ccccc4)c3)nc2[nH]1 [Example 16, 2-[(3-phenylphenyl)methyl-amino]-5-propyl-4H-[1,2,4]-triazolo[1,5-a]pyrimidin-7-one]
401 nM	–	CCCc1cc(=O)n2nc(NCc3cc(-c4cnn(C)c4)ccc3Cl)nc2[nH]1 [Example 24, 2-[[2-chloro-5-(1-methylpyrazol-4-yl)phenyl]methylamino]-5-propyl-4H-[1,2,4]triazolo[1,5-a]pyrimidin-7-one]
–	4000 nM	CCCc1cc(=O)n2nc(NCc3ccc(OCc4ccccc4)cc3Cl)nc2[nH]1 [Example 15]

Compound	IC50 [1]	IC50
CC(C)Cc1cc(=O)n2nc(NCc3ccc(Cl)cc3Cl)nc2[nH]1 [Example 64, 2-[(2,4-dichlorophenyl)methyl-amino]-5-isobutyl-4H-[1,2,4]-triazolo[1,5-a]pyrimidin-7-one]	–	3330 nM
